Test results: ChEMBL document CHEMBL4024731, “Cytotoxic steroidal saponins from Trillium kamtschaticum” (Bioorg Med Chem Lett, 2017)

Tested on: HCT-116
Assay: Cytotoxicity against human HCT116 cells after 48 hrs by MTT assay
Assay type: functional, cell-based
Conditions: HCT-116, 48 h

SMILES | IC50
CC(=O)OC[C@H]1[C@@H]2C3=C(C(=O)[C@@H]2O[C@@]12OC[C@H](C)[C@@H](O)[C@@H]2O)[C@@H]1CC=C2C[C@@H](O)C[C@@H](O[C@@H]4OC[C@H](O)[C@H](O)[C@H]4O[C@@H]4O[C@@H](C)[C@H](OC(C)=O)[C@@H](O[C@@H]5OC[C@](O)(CO)[C@H]5O)[C@H]4O)[C@]2(C)[C@H]1CC3 | 4.92 µM
C/C(C(=O)CC[C@@H](C)CO[C@@H]1O[C@H](CO)[C@@H](O)[C@H](O)[C@H]1O)=C1/C(=O)C[C@H]2[C@@H]3CC=C4C[C@@H](O[C@@H]5O[C@H](CO)[C@@H](O[C@@H]6O[C@@H](C)[C@H](O)[C@@H](O)[C@H]6O)[C@H](O)[C@H]5O)CC[C@]4(C)[C@H]3CC[C@]12C | 17.3 µM
CC(=O)O[C@H]1[C@@H](C)CO[C@@]2(O[C@H]3C(=O)C4=C(CC[C@H]5[C@H]4CC=C4C[C@@H](O)C[C@@H](O[C@@H]6OC[C@H](O)[C@H](O[C@@H]7OC[C@@H](O)[C@H](O)[C@H]7O)[C@H]6O[C@@H]6O[C@@H](C)[C@H](O)[C@@H](O[C@@H]7OC[C@](O)(CO)[C@H]7O)[C@H]6O)[C@@]45C)[C@H]3[C@@H]2CO)[C@H]1O | 5.84 µM
CC1=C2[C@](O)(C[C@H]3[C@@H]4CC=C5C[C@@H](O[C@@H]6O[C@H](CO)[C@@H](O[C@@H]7O[C@@H](C)[C@H](O)[C@@H](O)[C@H]7O)[C@H](O)[C@H]6O[C@@H]6O[C@@H](C)[C@H](O)[C@@H](O)[C@H]6O)CC[C@]5(C)[C@H]4CC[C@]23C)[C@@H](C[C@@H](C)CO[C@@H]2O[C@H](CO)[C@@H](O)[C@H](O)[C@H]2O)C1=O | > 40 µM
Cc1c(CCC(C)CO)ccc2c1[C@@]1(C)CC[C@H]3[C@@H](CC=C4C[C@@H](O[C@@H]5O[C@H](CO)[C@@H](O)[C@H](O)[C@H]5O[C@@H]5O[C@@H](C)[C@H](O)[C@@H](O)[C@H]5O)CC[C@@]43C)[C@@H]1C2 (stereo not given in full) | > 40 µM
C[C@@H]1O[C@@H](O[C@H]2[C@H](O[C@H]3CC[C@@]4(C)C(=CC[C@@H]5[C@@H]4CC[C@]4(C)C(=O)OC[C@@H]54)C3)O[C@H](CO)[C@@H](O)[C@@H]2O)[C@H](O)[C@H](O)[C@H]1O | > 40 µM
COC(=O)/C(C)=C1\C(=O)C[C@H]2[C@@H]3CC=C4C[C@@H](O[C@@H]5O[C@H](CO)[C@@H](O)[C@H](O)[C@H]5O[C@@H]5O[C@@H](C)[C@H](O)[C@@H](O)[C@H]5O)CC[C@]4(C)[C@H]3CC[C@]12C | > 40 µM
CC(=O)OC[C@H]1[C@@H]2C3=C(C(=O)[C@@H]2O[C@@]12OC[C@H](C)[C@@H](O)[C@@H]2O)[C@@H]1CC=C2C[C@@H](O)C[C@@H](O[C@@H]4OC[C@H](O)[C@H](O[C@@H]5OC[C@@H](O)[C@H](O)[C@H]5O)[C@H]4O[C@@H]4O[C@@H](C)[C@H](O)[C@@H](O[C@@H]5OC[C@](O)(CO)[C@H]5O)[C@H]4O)[C@]2(C)[C@H]1CC3 | 22.5 µM
C/C(C(=O)CC[C@@H](C)CO[C@@H]1O[C@H](CO)[C@@H](O)[C@H](O)[C@H]1O)=C1/C(=O)C[C@H]2C3CC=C4C[C@@H](O[C@@H]5O[C@H](CO)[C@@H](O)[C@H](O)[C@H]5O[C@@H]5O[C@@H](C)[C@H](O)[C@@H](O)[C@H]5O)CC[C@]4(C)[C@H]3CC[C@]12C (single isomer, unassigned) | 12.7 µM
CC[C@@]1(O)C(=O)OCc2c1cc1n(c2=O)Cc2cc3ccccc3nc2-1 [CAMPTOTHECIN] | 0.0115 µM
